Experimental data published in PubChem BioAssay (NCI).
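GI50: concentration for 50% inhibition of growth. TGI: total growth inhibition.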

Assays:
Test in all cases: inhibition of tumour cell growth, NCI panel, 384-well format
PC-3 prostate = test system: PC-3 prostate
MDA-MB-468 breast = test system: MDA-MB-468 breast
786-0 renal = test system: 786-0 renal
TK-10 renal = test system: TK-10 renal
SK-OV-3 ovarian = test system: SK-OV-3 ovarian
HCT-116 colon = test system: HCT-116 colon
SF-268 CNS = test system: SF-268 CNS
M14 melanoma = test system: M14 melanoma
OVCAR-3 ovarian = test system: OVCAR-3 ovarian
OVCAR-8 ovarian = test system: OVCAR-8 ovarian
MDA-MB-231 breast = test system: MDA-MB-231 breast
SK-MEL-5 melanoma = test system: SK-MEL-5 melanoma
SR leukemia = test system: SR leukemia
SW-620 colon = test system: SW-620 colon
RPMI-8226 leukemia = test system: RPMI-8226 leukemia
NCI/ADR-RES ovarian = test system: NCI/ADR-RES ovarian
K-562 leukemia = test system: K-562 leukemia
OVCAR-4 ovarian = test system: OVCAR-4 ovarian
A549 NSCLC = test system: A549 NSCLC
MALME-3M melanoma = test system: MALME-3M melanoma
MOLT-4 leukemia = test system: MOLT-4 leukemia
CCRF-CEM leukemia = test system: CCRF-CEM leukemia
COLO 205 colon = test system: COLO 205 colon
NCI-H322M lung = test system: NCI-H322M lung
HS 578T breast = test system: HS 578T breast
UACC-62 melanoma = test system: UACC-62 melanoma
HCC-2998 colon = test system: HCC-2998 colon
SF-295 CNS = test system: SF-295 CNS
KM12 colon = test system: KM12 colon
HOP-62 NSCLC = test system: HOP-62 NSCLC
SNB-75 CNS = test system: SNB-75 CNS
NCI-H226 lung = test system: NCI-H226 lung
DU-145 prostate = test system: DU-145 prostate
IGROV1 ovarian = test system: IGROV1 ovarian
A498 renal = test system: A498 renal
EKVX NSCLC = test system: EKVX NSCLC
OVCAR-5 ovarian = test system: OVCAR-5 ovarian
SK-MEL-2 melanoma = test system: SK-MEL-2 melanoma
NCI-H23 lung = test system: NCI-H23 lung
CAKI-1 renal = test system: CAKI-1 renal
HCT-15 colon = test system: HCT-15 colon
NCI-H522 lung = test system: NCI-H522 lung
UO-31 renal = test system: UO-31 renal
SNB-19 CNS = test system: SNB-19 CNS
U251 glioblastoma = test system: U251 glioblastoma
HL-60(TB) leukemia = test system: HL-60(TB) leukemia
SK-MEL-28 melanoma = test system: SK-MEL-28 melanoma
ACHN renal = test system: ACHN renal
SF-539 CNS = test system: SF-539 CNS
HOP-92 NSCLC = test system: HOP-92 NSCLC
LOX IMVI melanoma = test system: LOX IMVI melanoma
SN12C renal = test system: SN12C renal
RXF 393 renal = test system: RXF 393 renal
HT29 colon = test system: HT29 colon
NCI-H460 NSCLC = test system: NCI-H460 NSCLC
MDA-MB-435 melanoma = test system: MDA-MB-435 melanoma
T-47D breast = test system: T-47D breast
MCF7 breast = test system: MCF7 breast

`Cc1ccc(C(=O)N(CCCN)[C@@H](c2nc3cc(Cl)ccc3c(=O)n2Cc2ccccc2)C(C)C)cc1` was tested, and the GI50 (PC-3 prostate) was < 10 nM, the TGI (PC-3 prostate) was 1620 nM and the GI50 (MDA-MB-468 breast) was < 10 nM. The TGI (MDA-MB-468 breast) was < 10 nM, the GI50 ([…]-0 renal) was < 10 nM and the TGI (786-0 renal) was 1420 nM. The GI50 (TK-10 renal) was 94.9 nM, the TGI (TK-10 renal) was 2070 nM and the GI50 (SK-OV-3 ovarian) was < 10 nM. For the same compound, the TGI (SK-OV-3 ovarian) was 1540 nM, the GI50 (HCT-116 colon) was < 10 nM and the TGI (HCT-116 colon) was 1200 nM. The GI50 (SF-268 CNS) was < 10 nM, the TGI (SF-268 CNS) was 1650 nM and the GI50 (M14 melanoma) was < 10 nM. For the same compound, the TGI (M14 melanoma) was < 10 nM, the GI50 (OVCAR-3 ovarian) was < 10 nM and the TGI (OVCAR-3 ovarian) was < 10 nM. The GI50 (OVCAR-8 ovarian) was < 10 nM, the TGI (OVCAR-8 ovarian) was 1200 nM and the GI50 (MDA-MB-231 breast) was < 10 nM. The TGI (MDA-MB-231 breast) was 1780 nM, the GI50 (SK-MEL-5 melanoma) was < 10 nM and the TGI (SK-MEL-5 melanoma) was 14.7 nM. For the same compound, the GI50 (SR leukemia) was < 10 nM, the TGI (SR leukemia) was < 10 nM and the GI50 (SW-620 colon) was < 10 nM. For the same compound, the TGI (SW-620 colon) was 1060 nM, the GI50 (RPMI-8226 leukemia) was < 10 nM and the TGI (RPMI-8226 leukemia) was < 10 nM. The GI50 (NCI/ADR-RES ovarian) was 109 nM, the TGI (NCI/ADR-RES ovarian) was 263 nM and the GI50 (K-562 leukemia) was < 10 nM. The TGI (K-562 leukemia) was < 10 nM, the GI50 (OVCAR-4 ovarian) was < 10 nM and the TGI (OVCAR-4 ovarian) was 1890 nM. The GI50 (A549 NSCLC) was < 10 nM, the TGI (A549 NSCLC) was 1800 nM and the GI50 (MALME-3M melanoma) was < 10 nM. For the same compound, the TGI (MALME-3M melanoma) was 1890 nM, the GI50 (MOLT-4 leukemia) was < 10 nM and the TGI (MOLT-4 leukemia) was < 10 nM. The GI50 (CCRF-CEM leukemia) was < 10 nM, the TGI (CCRF-CEM leukemia) was < 10 nM and the GI50 (COLO 205 colon) was < 10 nM. The TGI (COLO 205 colon) was < 10 nM, the GI50 (NCI-H322M lung) was < 10 nM and the TGI (NCI-H322M lung) was 1730 nM. The GI50 (HS 578T breast) was < 10 nM, the TGI (HS 578T breast) was < 10 nM and the GI50 (UACC-62 melanoma) was < 10 nM. For the same compound, the TGI (UACC-62 melanoma) was 1400 nM, the GI50 (HCC-2998 colon) was < 10 nM and the TGI (HCC-2998 colon) was 112 nM. The GI50 (SF-295 CNS) was < 10 nM, the TGI (SF-295 CNS) was < 10 nM and the GI50 (KM12 colon) was < 10 nM. For the same compound, the TGI (KM12 colon) was 927 nM, the GI50 (HOP-62 NSCLC) was < 10 nM and the TGI (HOP-62 NSCLC) was 1950 nM. The GI50 (SNB-75 CNS) was < 10 nM, the TGI (SNB-75 CNS) was 1950 nM and the GI50 (NCI-H226 lung) was 1120 nM. The TGI (NCI-H226 lung) was 2340 nM, the GI50 (DU-145 prostate) was < 10 nM and the TGI (DU-145 prostate) was < 10 nM. The GI50 (IGROV1 ovarian) was 1100 nM, the TGI (IGROV1 ovarian) was 2320 nM and the GI50 (A498 renal) was < 10 nM. The TGI (A498 renal) was 1810 nM, the GI50 (EKVX NSCLC) was < 10 nM and the TGI (EKVX NSCLC) was 1220 nM. The GI50 (OVCAR-5 ovarian) was < 10 nM, the TGI (OVCAR-5 ovarian) was 1250 nM and the GI50 (SK-MEL-2 melanoma) was < 10 nM. The TGI (SK-MEL-2 melanoma) was < 10 nM, the GI50 (NCI-H23 lung) was < 10 nM and the TGI (NCI-H23 lung) was 1080 nM. The GI50 (CAKI-1 renal) was < 10 nM, the TGI (CAKI-1 renal) was 1920 nM and the GI50 (HCT-15 colon) was < 10 nM. The TGI (HCT-15 colon) was 1280 nM, the GI50 (NCI-H522 lung) was < 10 nM and the TGI (NCI-H522 lung) was < 10 nM. For the same compound, the GI50 (UO-31 renal) was 1080 nM, the TGI (UO-31 renal) was 2290 nM and the GI50 (SNB-19 CNS) was < 10 nM. For the same compound, the TGI (SNB-19 CNS) was 1740 nM, the GI50 (U251 glioblastoma) was < 10 nM and the TGI (U251 glioblastoma) was 1430 nM. For the same compound, the GI50 (HL-60(TB) leukemia) was < 10 nM, the TGI (HL-60(TB) leukemia) was < 10 nM and the GI50 (SK-MEL-28 melanoma) was 1350 nM. It also gave a TGI (SK-MEL-28 melanoma) of 2640 nM, a GI50 (ACHN renal) of 1140 nM and a TGI (ACHN renal) of 2370 nM. The GI50 (SF-539 CNS) was < 10 nM, the TGI (SF-539 CNS) was 20.2 nM and the GI50 (HOP-92 NSCLC) was < 10 nM. For the same compound, the TGI (HOP-92 NSCLC) was 1700 nM, the GI50 (LOX IMVI melanoma) was < 10 nM and the TGI (LOX IMVI melanoma) was 1530 nM. The GI50 (SN12C renal) was < 10 nM, the TGI (SN12C renal) was 1790 nM and the GI50 (RXF 393 renal) was < 10 nM. The TGI (RXF 393 renal) was < 10 nM, the GI50 (HT29 colon) was < 10 nM and the TGI (HT29 colon) was 1000 nM. The GI50 (NCI-H460 NSCLC) was < 10 nM, the TGI (NCI-H460 NSCLC) was < 10 nM and the GI50 (MDA-MB-435 melanoma) was < 10 nM. The TGI (MDA-MB-435 melanoma) was < 10 nM, the GI50 (T-47D breast) was < 10 nM and the TGI (T-47D breast) was 1300 nM. For the same compound, the GI50 (MCF7 breast) was < 10 nM and the TGI (MCF7 breast) was 1270 nM.
